Assay results reported in ChEMBL document CHEMBL1139711, “A novel oxazine ring closure reaction affording (Z)-((E)-2-styrylbenzo[b]furo[3,2-d][1,3]oxazin-4-ylideno)acetaldehydes and their anti-osteoclastic bone resorption activity” (Bioorg Med Chem Lett, 2006).
Active and inactive are the calls of the source. The rule behind the calls is not given here.

Test system: Osteoclast
Assay: Bone resorption activity assessed as inhibition of PGE2-stimulated pit formation in ddY mouse osteoclasts
Type: functional, cell-based

Row | Compound | Activity
1 | C[C@]12CC[C@@H]3c4ccc(O)cc4CC[C@H]3[C@@H]1CC[C@@H]2O | Active
2 | CCOC(=O)/C=C/C=C1\OC(/C=C/c2ccccc2)=Nc2c1oc1ccc(Br)cc21 | Active
3 | O=C/C=C1\OC(/C=C/c2ccccc2)=Nc2c1oc1ccc(Br)cc21 | inactive
